Reference: US12479804B2, “Herbicidal compounds” (SYNGENTA CROP PROTECTION AG, priority 2019, dated 2025)

Columns and labels:
Experiment in all cases: Glasshouse herbicidal test, pre- and post-emergence, percentage damage to the plant
Type in all cases: in vivo
[1] = system: Alopecurus myosuroides (ALOMY); details: 250 g/h, evaluated after 13 days; for ALOMY POST percentage damage caused to the plant (five-point scale): post-emergence; for ALOMY PRE percentage damage caused to the plant (five-point scale): pre-emergence
Method: (§1) Seeds of a variety of test species are sown in standard soil in pots (Lolium perenne (LOLPE), Setaria faberi (SETFA), Alopecurus myosuroides (ALOMY), Echinochloa crus-galli (ECHCG), Avena fatua (AVEFA)). After cultivation for one day (pre-emergence) or after 8 days cultivation (post-emergence) under controlled conditions in a glasshouse (at 24/16° C., day/night; 14 hours light; 65% humidity), the plants are sprayed with an aqueous spray solution derived from the formulation of the technical active ingredient in acetone/water (50:50) solution containing 0.5% Tween 20 (polyoxyethelyene sorbitan monolaurate, CAS RN 9005-64-5). Compounds are applied at 250 g/h. The test plants are then grown in a glasshouse under controlled conditions in a glasshouse (at 24/16° C., day/night; 14 hours light; 65% humidity) and watered twice daily. After 13 days for pre and post-emergence, the test is evaluated for the percentage damage caused to the plant. The biological activities are shown in the following table on a five-point scale (5=80-100%; 4=60-79%; 3=40-59%; 2=20-39%; 1=0-19%).

Avena fatua (AVEFA) = details: 250 g/h, evaluated after 13 days; for AVEFA POST percentage damage caused to the plant (five-point scale): post-emergence; for AVEFA PRE percentage damage caused to the plant (five-point scale): pre-emergence
Method: as §1

[2] = system: Echinochloa crus-galli (ECHCG); details: 250 g/h, evaluated after 13 days; for ECHCG POST percentage damage caused to the plant (five-point scale): post-emergence; for ECHCG PRE percentage damage caused to the plant (five-point scale): pre-emergence
Method: as §1

Lolium perenne (LOLPE) = details: 250 g/h, evaluated after 13 days; for LOLPE POST percentage damage caused to the plant (five-point scale): post-emergence; for LOLPE PRE percentage damage caused to the plant (five-point scale): pre-emergence
Method: as §1

Setaria faberi (SETFA) = details: 250 g/h, evaluated after 13 days; for SETFA POST percentage damage caused to the plant (five-point scale): post-emergence; for SETFA PRE percentage damage caused to the plant (five-point scale): pre-emergence
Method: as §1

| SMILES | ALOMY POST percentage damage caused to the plant (five-point scale) [1] | ALOMY PRE percentage damage caused to the plant (five-point scale) [1] | AVEFA POST percentage damage caused to the plant (five-point scale) (Avena fatua (AVEFA)) | AVEFA PRE percentage damage caused to the plant (five-point scale) (Avena fatua (AVEFA)) | ECHCG POST percentage damage caused to the plant (five-point scale) [2] | ECHCG PRE percentage damage caused to the plant (five-point scale) [2] | LOLPE POST percentage damage caused to the plant (five-point scale) (Lolium perenne (LOLPE)) | LOLPE PRE percentage damage caused to the plant (five-point scale) (Lolium perenne (LOLPE)) | SETFA POST percentage damage caused to the plant (five-point scale) (Setaria faberi (SETFA)) | SETFA PRE percentage damage caused to the plant (five-point scale) (Setaria faberi (SETFA)) |
| --- | --- | --- | --- | --- | --- | --- | --- | --- | --- | --- |
| CC#Cc1cc(C)c(C2C(=O)CC3(CCNC(=O)C3)CC2=O)c(C)c1 (centres unmarked) [Compound A2] | 3 (3=40-59%) | 3 (3=40-59%) | 4 (4=60-79%) | 3 (3=40-59%) | 5 (5=80-100%) | 3 (3=40-59%) | 4 (4=60-79%) | 4 (4=60-79%) | 5 (5=80-100%) | 5 (5=80-100%) |
| CC#Cc1cc(C)c(C2C(=O)CC3(CCCN(C(C)=O)C3)CC2=O)c(C)c1 (centres unmarked) [Compound A3] | 5 (5=80-100%) | 2 (2=20-39%) | 5 (5=80-100%) | 3 (3=40-59%) | 5 (5=80-100%) | 2 (2=20-39%) | 5 (5=80-100%) | 2 (2=20-39%) | 5 (5=80-100%) | 3 (3=40-59%) |
| CC#Cc1cc(C)c(C2C(=O)CC3(CCN(C(C)=O)C3)CC2=O)c(C)c1 (centres unmarked) [Compound A4] | 5 (5=80-100%) | 5 (5=80-100%) | 5 (5=80-100%) | 5 (5=80-100%) | 5 (5=80-100%) | 5 (5=80-100%) | 5 (5=80-100%) | 5 (5=80-100%) | 5 (5=80-100%) | 5 (5=80-100%) |
| CC#Cc1cc(C)c(C2C(=O)CC3(CCN(C)C(=O)C3=O)CC2=O)c(C)c1 (centres unmarked) [Compound A5] | 5 (5=80-100%) | 3 (3=40-59%) | 4 (4=60-79%) | 3 (3=40-59%) | 5 (5=80-100%) | 5 (5=80-100%) | 5 (5=80-100%) | 5 (5=80-100%) | 5 (5=80-100%) | 5 (5=80-100%) |
| CC#Cc1cc(C)c(C2C(=O)CC3(CCCN(C(=O)OC(C)(C)C)CC3)CC2=O)c(C)c1 (centres unmarked) [Compound A6] | 5 (5=80-100%) | 4 (4=60-79%) | 4 (4=60-79%) | 4 (4=60-79%) | 5 (5=80-100%) | 5 (5=80-100%) | 5 (5=80-100%) | 5 (5=80-100%) | 5 (5=80-100%) | 5 (5=80-100%) |
